From patent US12157713B2, “Conjugated oligoelectrolytes as antimicrobial agents” (Nanyang Technological University, priority 2018, dated 2024) come the findings set out here.

For test [1], the system named is E. coli K12. In words: MIC by broth microdilution against E. coli K12. The format is cell-based. The following applies: Escherichia coli. The method, then:
The respective minimum inhibition concentration (MIC) of each COE molecule was determined using a broth microdilution method. Briefly, COEs were diluted via a 2-fold dilution series in 100 μL of either Muller Hinton Broth (MHB) for E. coli and S. aureus or Brain Heart Infusion Broth (BHI) for E. faecalis in a 96-well plate to achieve the desired final concentration. Subsequently, each well was inoculated with 100 μL of 1×10^6 colony forming units (CFU) mL^−1 of the respective microorganism in MHB for E. coli or BHI for E. faecalis to achieve an inoculum density of 5×10^5 CFU mL^−1. The plates were then incubated at 37° C. with shaking (200 rpm) for 18 hrs. […] The results were obtained in triplicate.
The MIC values of COE-D4, COE-D6 and COE-D8 against the reference strain E. coli K12, pathogenic E. coli UT189, and the Gram positive pathogen Enterococcus faecalis OG1RF were determined using a broth microdilution method as described in the general method above. The MICs for E. coli K12 were determined to be 128, 16, and 4 μg mL^−1 for COE-D4, COE-D6, and COE-D8, respectively (FIG. 5a). […] This is not surprising as these two organisms differ in the capsular polysaccharides that they expressed, which are known to hinder the uptake of antimicrobials and mitigate their potency (M. A. Campos, et al., Infect. Immun. 2004, 72, 7107-7114). A K-type capsid comprising α2-8-linked sialic acid is excreted by UT189 and is known to be an important virulence factor for this organism (C. Whitfield, et al., Mol. Microbiol. 1999, 31, 1307-1319; G. G. Anderson, et al., Infect. Immun. 2010, 78, 963-975).

Test [2] has as its system Pseudomonas aeruginosa ATCC 27853. Put plainly: Single-dose growth inhibition, Pa. The format is cell-based. The method, then:
(§1) Inhibition of bacterial growth was determined by measuring the absorbance at 600 nm (OD600), using a Tecan M1000 Pro monochromator plate reader. Growth inhibition was calculated for each well, relative to the reference growths determined from a negative control (media only) and positive control (bacteria without inhibitors) incubated in the same plate. A single dose of 32 μg/mL of COE (final concentration) was used for each test.
(§2) Percentage growth inhibition of an individual sample was calculated based on growth in a reference well determined from negative controls (media only) and positive controls (bacterial/fungal media without inhibitors). Negative inhibition values indicate that the growth rate (or OD600) is higher compared to the reference growth (bacteria/fungi only, set to 0% inhibition). The growth rates for all bacteria and fungi may vary at −/+10%, which were within the reported normal distribution of bacterial/fungal growth. Any significant variations (or outliers/hits) were identified by the modified Z-Score, and the active compounds were selected by a combination of inhibition values and Z-Score.
(§3) A M(i) value of >|2.5| (absolute) would classify the sample as outliers or hits. Active samples were denoted as compounds with inhibition values equal to or above 80% and absolute Z-Score above |2.5| for either replicate (n=2 on different plates). Partial active samples were denoted as compounds with inhibition values from 50% to <80%, or absolute Z-Score below |2.5|.

The test system of test [3] is Klebsiella pneumoniae MDR ATCC 700603. Put plainly: Single-dose growth inhibition, Kp. The format is cell-based. The method, then: as §1, §2, §3
Test [4] deals with E. coli K12. Put plainly: Epifluorescence imaging of COE-treated E. coli K12. In kind it is cell-based, Escherichia coli. To be noted: 32 μg/mL COE; excitation 365 nm, emission 445/50 nm. As for the experimental part: E. coli K-12 was grown, collected and washed according to the procedure described above (in the uptake measurements). COE solutions (in PBS) were added to a PBS suspension of E. coli K12 (OD600=1.0) to achieve final COE concentrations of 32 μg/mL. After incubating for 2 hrs at room temperature under shaking (200 rpm), a drop of suspension was placed on a microscope slide with a cover slip (#1.5, 0.17 mm thickness) and imaged using an inverted widefield epifluorescence microscope with Plan-Apochromat 100x/1.4 phase contrast with oil immersion lens (Carl Zeiss Axio Observer Z1 Inverted Microscope). The fluorescence microscopy images were observed by collecting the fluorescence signal of COEs using the DAPI dye channel (filter set 49 DAPI with excitation peak at 365 nm and emission at 445/50 nm). The bright field images of cells were obtained at exact same location using phase contrast transmitted light technique (Plan-Apochromat 100x/1.4 phase contrast with oil immersion lens). The cell images treated by different COEs were obtained under identical conditions with the matching irradiation frequency and exposure time.
Epi-fluorescence images of the COE-treated E. coli K12 cells were acquired by excitation at λ=365 nm and collecting emission at λ=445/50 nm.

The subject of test [5] is Staphylococcus aureus MRSA ATCC 43300. In words: Single-dose growth inhibition, Sa. In kind it is cell-based. As for the experimental part:
as §1, §2, §3

In test [6] the test system is organism classes (Gram-negative, Gram-positive and fungi). In words: Single-dose screening summary by organism class. In kind it is cell-based. To be noted: 32 μg/mL; 0 = no activity. As for the experimental part:
as §2
Z-Score analysis was carried out to investigate outliers or hits among the samples. The Z-Score was calculated based on the sample population using a modified Z-Score method which accounts for possible skewed sample population. The modified method uses median and MAD ([…]) instead of average and standard deviation, and a scaling factor (Iglewicz, B. & Hoaglin, D. C. Volume 16: How to Detect and Handle Outliers. The ASQC Basic Reference in Quality Control: Statistical Techniques, 1993). The equation to calculate the modified Z-Score value is as follow: […]
as §3

The subject of test [7] is Escherichia coli FDA control ATCC 25922. Put plainly: Single-dose growth inhibition, Ec. The format is cell-based. As for the experimental part: as §1, §2, §3
Test [8] deals with Cryptococcus neoformans var. grubii H99; ATCC 208821. In words: Single-dose growth inhibition, Cn. In kind it is cell-based. The method, then: Growth inhibition of C. albicans was determined by measuring the absorbance at 530 nm (OD530), while the growth inhibition of C. neoformans was determined by measuring the difference in absorbance between 600 and 570 nm (OD600-570), after the addition of resazurin (0.001 wt. % final concentration) and incubation at 35° C. for additional 2 hrs. The absorbance was measured using a Biotek Synergy HTX plate reader. The relative growth inhibition was calculated for each well, relative to that determined from a negative control (media only) and positive control (bacteria without inhibitors) on the same plate as references. A single dose of 32 μg/mL of COE (final concentration) was used for each test.
as §2, §3

Test [9] relates to Acinetobacter baumannii ATCC 19606. In words: Single-dose growth inhibition, Ab. In kind it is cell-based. The method, then:
as §1, §2, §3

Where [10] appears, read: K12, 18 h, read-out: MIC against E. coli K12.
The mark [11] stands for this setting: K12, read-out: MIC against E. coli K12.
The mark [12] stands for this setting: K12, read-out: MICeff (MIC×U %).
Setting [13] is: ATCC27853, read-out: Growth inhibition Pa.
[14] abbreviates: ATCC700603, read-out: Growth inhibition Kp.
Setting [15] is: ATCC25922, read-out: Growth inhibition Ec.
Where [16] appears, read: ATCC208821, read-out: Growth inhibition Cn.
Setting [17] is: ATCC19606, read-out: Growth inhibition Ab.
Where [18] appears, read: K12, broth microdilution, MHB, 18 hrs, read-out: MIC against E. coli K12.
[19] abbreviates: ATCC27853, 32 μg/mL single dose, n=2, read-out: Growth inhibition Pa.
[20] abbreviates: ATCC700603, 32 μg/mL single dose, n=2, read-out: Growth inhibition Kp.
Setting [21] is: 32 μg/mL single dose, n=2, read-out: Growth inhibition Sa.
[22] abbreviates: ATCC25922, 32 μg/mL single dose, n=2, read-out: Growth inhibition Ec.
[23] abbreviates: ATCC208821, 32 μg/mL single dose, n=2, read-out: Growth inhibition Cn.
The mark [24] stands for this setting: ATCC19606, 32 μg/mL single dose, n=2, read-out: Growth inhibition Ab.

Each structure is given as a SMILES string. Like-named read-outs stand apart in the source and are kept apart here.

On to `C[N+](C)(C)CCCCOc1ccc(/C=C/c2ccc(OCCCC[N+](C)(C)C)cc2)cc1` [COE-D4], for which the MIC was found to be 128 µg/mL with E. coli K12 [1] (setting [10]), 128 µg/mL in the test with E. coli K12 [1] (setting [11]) and 3.8 µg/mL with E. coli K12 [1] (setting [12]). The inhibition at 32 µg/mL in [2] (setting [13]) was < 50%; in test [3] (setting [14]), < 50%; in [5] (read-out: Growth inhibition Sa), > 80%; in test [7] (setting [15]) it was < 50%; in test [8] (setting [16]), > 80%; in test [9] (setting [17]), < 50%. In the test on E. coli K12 [4], the “Fluorescence intensity of treated E. coli K12 cells relative to background” value is recorded as “indistinct image”. In addition, in test [6], the “Activity: number of organism classes the compound has been found active against” value (“Activity: number” for short) is 2.
Turning to `C[N+](C)(C)CCCCCCOc1ccc(/C=C/c2ccc(OCCCCCC[N+](C)(C)C)cc2)cc1` [COE-D6], the MIC worked out at 16 µg/mL in the test on E. coli K12 [1] (setting [10]), 16 µg/mL with E. coli K12 [1] (setting [11]) and 2.6 µg/mL in the test with E. coli K12 [1] (setting [12]). The inhibition at 32 µg/mL in [2] (setting [13]) was < 50%; in test [3] (setting [14]), < 50%; in [5] (read-out: Growth inhibition Sa) it was > 80%; in test [7] (setting [15]) it was > 80%; in test [8] (setting [16]) it was > 80%; in test [9] (setting [17]) it was < 50%. The “Fluorescence intensity of treated E. coli K12 cells relative to background” value in the test with E. coli K12 [4] is on record as “intermediate fluorescence intensity”. Moreover, the “Activity: number” value in test [6] is given as 3.
Turning to `C[N+](C)(C)CCCCCCCCOc1ccc(/C=C/c2ccc(OCCCCCCCC[N+](C)(C)C)cc2)cc1` [COE-D8], the MIC in the test with E. coli K12 [1] (setting [10]) was found to be 4 µg/mL; in the test on E. coli K12 [1] (setting [11]), 4 µg/mL; with E. coli K12 [1] (setting [12]), 2.9 µg/mL. The inhibition at 32 µg/mL in test [2] (setting [13]) was 50 to 80%; in [3] (setting [14]), 50 to 80%; in test [5] (read-out: Growth inhibition Sa) it was > 80%; in test [7] (setting [15]), > 80%; in test [8] (setting [16]), > 80%; in test [9] (setting [17]) it was > 80%. In addition, the “Fluorescence intensity of treated E. coli K12 cells relative to background” value in the test with E. coli K12 [4] is “highest fluorescence intensities”. For the same molecule, the “Activity: number” value in [6] is recorded as 3.
With `CN(C)CC[N+](C)(C)CCCCCCOc1ccc(/C=C/c2ccc(OCCCCCC[N+](C)(C)CCN(C)C)cc2)cc1` [COE-D62N], in the test on E. coli K12 [1] (setting [18]), the MIC was found to be 8 µg/mL. The inhibition at 32 µg/mL is < 50% in test [2] (setting [19]); < 50% in test [3] (setting [20]); > 80% in test [5] (setting [21]); > 80% in test [7] (setting [22]); > 80% in test [8] (setting [23]); > 80% in test [9] (setting [24]). The “Activity: number” value in test [6] came out at 3.
For the molecule `CN(C)CC[N+](C)(C)CCCCCCCCOc1ccc(/C=C/c2ccc(OCCCCCCCC[N+](C)(C)CCN(C)C)cc2)cc1` [COE-D82N], the minimum inhibitory concentration (MIC) in the test with E. coli K12 [1] (setting [18]) stood at 8 µg/mL. For the same molecule, the inhibition at 32 µg/mL is 50 to 80% in test [2] (setting [19]); > 80% in test [3] (setting [20]); > 80% in [5] (setting [21]); > 80% in test [7] (setting [22]); > 80% in test [8] (setting [23]); > 80% in test [9] (setting [24]). Also, the “Activity: number” value in test [6] is listed as 3.
